According to patent US7399869B2, “Fibroblast activation protein inhibitor compounds and methods” (Genentech, Inc., priority 2005, dated 2008):
Residues, ends and D or L forms follow the SMILES beside them. *: point of attachment. CH2Cl = ClC*

Experiments:
FAP [1] = target: T1, FAP (Homo sapiens, UniProt Q12884); test: Relative cleavage rates of coumarin (AMCC) dipeptide substrates by FAP; assay type: biochemical; design: FAP (amino acids 38-760); FLAG (N); made in house; host or cells: 293 cells (secreted, purified from serum-free conditioned media); conditions: P2-Pro-AMCC substrates; hydrolysis rates normalized to Gly-Pro-AMCC
T1 sequence (Q12884 38-760): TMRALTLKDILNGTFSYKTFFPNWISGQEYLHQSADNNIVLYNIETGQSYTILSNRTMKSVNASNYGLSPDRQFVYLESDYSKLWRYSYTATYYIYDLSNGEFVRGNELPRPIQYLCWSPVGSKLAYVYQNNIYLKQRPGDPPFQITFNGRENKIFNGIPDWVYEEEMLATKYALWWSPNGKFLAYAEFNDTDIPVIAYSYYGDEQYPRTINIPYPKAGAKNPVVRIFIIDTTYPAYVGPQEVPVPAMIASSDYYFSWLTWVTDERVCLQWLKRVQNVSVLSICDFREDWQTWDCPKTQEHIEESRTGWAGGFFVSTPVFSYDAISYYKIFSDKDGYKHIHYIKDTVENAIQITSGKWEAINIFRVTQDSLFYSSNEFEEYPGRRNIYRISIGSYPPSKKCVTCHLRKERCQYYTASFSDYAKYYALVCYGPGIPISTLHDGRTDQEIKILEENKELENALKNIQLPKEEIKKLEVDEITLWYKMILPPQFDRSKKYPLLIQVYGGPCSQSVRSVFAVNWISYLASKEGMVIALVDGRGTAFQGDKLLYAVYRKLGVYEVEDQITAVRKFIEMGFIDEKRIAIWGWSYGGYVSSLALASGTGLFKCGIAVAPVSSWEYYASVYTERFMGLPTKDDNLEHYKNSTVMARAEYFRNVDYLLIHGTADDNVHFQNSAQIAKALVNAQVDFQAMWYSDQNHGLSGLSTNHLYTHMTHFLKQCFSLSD
Method: (§1) The relative cleavage rates of a variety of N-blocked, C-terminal coumarin (AMCC) Gly-Pro dipeptide substrates 6 were measured. The rates were normalized to N-unblocked Gly-Pro-AMCC for FAP and DPP-4.
(§2) To examine whether FAP could cleave other N-substituted-Gly-Pro-based substrates, N-methyl-, formyl-, succinyl-, benzyloxycarbonyl-(Z-) and biotinyl-Gly-Pro-AMCC substrates 6 were synthesized and reacted with FAP (37 nM) and DPP-4 (6.8 nM).
(§3) Amino-terminus P2 was varied with the L-amino acids: alanine, aspartic acid, glutamic acid, phenylalanine, glycine, histidine, isoleucine, lysine, leucine, methionine, asparagine, proline, glutamine, arginine, serine, threonine, valine, tryptophan, and tyrosine (from left). AMCC=2-(7-amino-4-methyl-2-oxo-2H-chromen-3-yl)acetamide. For both enzymes, the amino acid adjacent in the model dipeptide substrate had little effect where the amino-terminus was unblocked. Hydrolysis rates of other P2-Pro-AMCC substrates by FAP and DPP-4 relative to Gly-Pro-AMCC include the following in Table 6:
(§4) Protease Assays—Protease activity was monitored continuously using a SpectraMax M2 microplate reader (Molecular Devices Corp., Sunnyvale Calif.) in the kinetic mode. Assays were conducted at 23° C. in 50 mM Tris (pH 7.4), 100 mM NaCl, 1 mM EDTA. The excitation/emission wavelengths for the different fluorogenic substrates were 360/460 nm (AMC), 400/505 nm (AFC), 340/425 nm (MNA), 340/510 nm (EDANS), and 337/425 nm (Abs). Standard curves of the appropriate fluorescent product versus concentration were used to convert relative fluorescence units to nmol of product produced. Substrates in the X-Pro-AMC library were used in rate assays at 5 μM final concentration. […] The kinetic parameters were calculated from Michaelis-Menten plots (V0 versus [S]) with nonlinear regression analysis using GraphPad software. kcat values were calculated under the assumption that each protease was 100% active.

DPP-4 [2] = target: T2, DPP-4 (Homo sapiens, UniProt P27487); test: Relative cleavage rates of coumarin (AMCC) dipeptide substrates by DPP-4; assay type: biochemical; design: DPP-4 (amino acids 39-766); FLAG (N); made in house; host or cells: 293 cells (secreted, purified from serum-free conditioned media); conditions: P2-Pro-AMCC substrates; hydrolysis rates normalized to Gly-Pro-AMCC
T2 sequence (P27487 39-766): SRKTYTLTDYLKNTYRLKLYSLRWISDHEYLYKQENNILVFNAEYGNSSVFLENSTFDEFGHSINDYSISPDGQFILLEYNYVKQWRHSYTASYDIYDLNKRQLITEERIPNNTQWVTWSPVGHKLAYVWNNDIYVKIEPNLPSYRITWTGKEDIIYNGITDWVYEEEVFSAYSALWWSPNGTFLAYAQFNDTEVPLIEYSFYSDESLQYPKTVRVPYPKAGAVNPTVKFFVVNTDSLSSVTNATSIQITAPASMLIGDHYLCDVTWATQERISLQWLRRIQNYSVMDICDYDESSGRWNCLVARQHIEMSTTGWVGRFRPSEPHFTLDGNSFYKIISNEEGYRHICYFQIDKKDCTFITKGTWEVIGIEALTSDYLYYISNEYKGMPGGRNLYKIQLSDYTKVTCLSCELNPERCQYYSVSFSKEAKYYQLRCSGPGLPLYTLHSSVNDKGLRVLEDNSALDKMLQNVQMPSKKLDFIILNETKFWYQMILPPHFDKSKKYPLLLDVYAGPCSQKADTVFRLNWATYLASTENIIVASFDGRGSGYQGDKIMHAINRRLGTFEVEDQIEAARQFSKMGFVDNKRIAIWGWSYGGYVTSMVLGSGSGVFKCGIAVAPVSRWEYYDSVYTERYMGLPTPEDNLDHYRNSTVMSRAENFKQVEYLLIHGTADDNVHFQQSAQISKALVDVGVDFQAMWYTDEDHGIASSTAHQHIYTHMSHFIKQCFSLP
Method: as §1, §2, §3, §4

FAP [3] = target: T1, FAP; test: Inhibition of FAP activity against Ala-Pro-AFC by P2-Pro-AMCC compounds; assay type: biochemical; design: FAP (amino acids 38-760); FLAG (N); made in house; host or cells: 293 cells (secreted, purified from serum-free conditioned media)
Method: (§5) Inhibition of FAP and DPP-4 activity against Ala-Pro-AFC by P2-Pro-AMCC compounds was measured at various concentration of the P2-Pro-AMCC compounds in Table 7.

DPP-4 [4] = target: T2, DPP-4; test: Inhibition of DPP-4 activity against Ala-Pro-AFC by P2-Pro-AMCC compounds; assay type: biochemical; design: DPP-4 (amino acids 39-766); FLAG (N); made in house; host or cells: 293 cells (secreted, purified from serum-free conditioned media)
Method: as §5

DPP-4 [5] = target: T2, DPP-4; test: Inhibition of recombinant DPP-4 by cmk-based irreversible inhibitors; assay type: biochemical; design: DPP-4 (amino acids 39-766); FLAG (N); made in house; host or cells: 293 cells (secreted, purified from serum-free conditioned media); conditions: for inhibition of DPP-4: 10, 100, and 500 μM inhibitor, residual activity against L-Ala-Pro-AFC; for time course of DPP-4 activity in the presence of inhibitor: substrate L-Ala-Pro-AFC
Method: (§6) The cleavage activities of FAP and DPP-4 in the presence of an irreversible dipeptide inhibitor was measured (FIGS. 9-12). In each time course study (FIGS. 9-15), the protease (FAP, DPP) and the inhibitor compound were incubated together for 4 hours, then residual activity was assayed against substrate.
(§7) The cleavage activities of FAP and DPP-4 in the presence of a tetrapeptide irreversible inhibitor was measured.
(§8) Acetyl-gly-pro-chloromethyl ketone and acetyl-thre-ser-gly-pro-cmk were custom synthesized at Anaspec (San Jose, Calif.). Recombinant FAP (160 nM) and DPP-4 (160 nM) were reacted with Ac-GP-cmk or TSGP-cmk (0-500 μM) at 37° C. in 50 mM Tris-HCl, pH 7.5 containing 100 mM NaCl, and 0.1 mg/ml bovine serum albumin (assay buffer). After 6 hours, residual protease activity against AP-AFC (50 μM) was measured using a Molecular Devices M2 plate reader in the kinetic mode (excitation 400 nm, emission 505 nm). Inhibition data are graphed as residual activity relative to protease activity in the absence of inhibitor.
(§9) Inhibition of FAP and DPP-4 by the cmk-based inhibitors was studied under pseudo-first order conditions. Proteases (100 nM) were reacted with 10 μM inhibitor in assay buffer at 37° C. for increasing amounts of time. Residual protease activity was then measured using AP-AFC (50 μM) as a substrate. Pseudo-first order rate constants were calculated from the slope of plots of Ln (residual protease activity) versus time. Apparent association constants (kass) for inhibition were determined from the relationship kass=kobs/[I], where kobs is the pseudo-first order rate constant and [I] is the inhibitor concentration.

FAP [6] = target: T1, FAP; test: Inhibition of recombinant FAP by cmk-based irreversible inhibitors; assay type: biochemical; design: FAP (amino acids 38-760); FLAG (N); made in house; host or cells: 293 cells (secreted, purified from serum-free conditioned media); conditions: for inhibitor concentration-dependent inhibition of FAP: 10, 100, and 500 μM inhibitor, residual activity against L-Ala-Pro-AFC; for time course of FAP activity in the presence of inhibitor: substrate L-Ala-Pro-AFC
Method: as §6, §7, §8, §9

DPP-4 [7] = target: T2, DPP-4; test: Inhibition of DPP-4 by N-blocked boroPro compounds (progress curves); assay type: biochemical; design: DPP-4 (amino acids 39-766); FLAG (N); made in house; host or cells: 293 cells (secreted, purified from serum-free conditioned media); conditions: for FAP/DPP-4 Selectivity: DPP-4 Ki relative to FAP Ki; for Ki: cleavage of substrate L-Ala-Pro-AFC
Method: (§10) The steady states of product formation in the absence (V0) and presence of inhibitor (Vi) were used to calculate apparent inhibition constants (Kiapp) by plotting V0/Vi−1 against inhibitor concentration.
(§11) Briefly, proteases were added to a reaction mixture containing inhibitor and substrate (Ac-Ala-AMC for APH, Z-Gly-Pro-AMC for POP, and Ala-Pro-AFC for all others) in assay buffer at 23° C. Protease activity was followed continuously as described above to monitor time-dependent inhibition. Data were plotted as V0/Vi−1 versus [I], where V0 is the rate if substrate hydrolysis in the absence of inhibitor, Vi is the steady state rate of substrate hydrolysis in the presence of inhibitor and [I] is the concentration of Ac-Gly-BoroPro.
(§12) KI values for inhibition of proteases by 5 were determined using the method of progress curves. Briefly, proteases (10-100 nM) were added to a reaction mixture containing inhibitor 5 (0-10 μM) and substrate AP-AFC in assay buffer at 23° C. […] Data were plotted as V0/Vi−1 versus [I], where V0 is the rate if substrate hydrolysis in the absence of inhibitor, Vi is the steady state rate of substrate hydrolysis in the presence of inhibitor and [I] is the concentration of 5. […] Ki, the true equilibrium inhibition constant was determined according to the following relationship: Ki=Kobs/(1+[S]/Km), where [S] is the concentration of substrate used in the assay and Km is the Michaelis constant for substrate cleavage.

FAP [8] = target: T1, FAP; test: Inhibition of FAP by N-blocked boroPro compounds (progress curves); assay type: biochemical; design: FAP (amino acids 38-760); FLAG (N); made in house; host or cells: 293 cells (secreted, purified from serum-free conditioned media); conditions: cleavage of substrate L-Ala-Pro-AFC
Method: as §10, §11, §12

tumor cells = conditions: cited from earlier work
[9] = test system: syngeneic tumors derived from fibrosarcoma, lymphoma, melanoma, and mastocytoma cell lines; conditions: oral administration to mice; cited from earlier work
FAP [10] = target: T1, FAP; conditions: FIG. 13
DPP-4 [11] = target: T2, DPP-4; conditions: FIG. 13

Molecule	Relative Hydrolysis rate by FAP (FAP [1])	Relative Hydrolysis rate by DPP-4 (DPP-4 [2])	Ki (FAP [3]) [nM]	Ki (DPP-4 [4]) [nM]	FAP/DPP-4 Selectivity (DPP-4 [7])	Ki (DPP-4 [7]) [nM]	Ki (FAP [8]) [nM]	other results
CC(=O)NC(C)C(=O)N1CCCC1C(=O)Nc1ccc2c(C)c(CC(N)=O)c(=O)oc2c1 [Ac-(D-Ala)]	3	1	1000	> 2000	–	–	–	–
CC(=O)NC(CO)C(=O)N1CCCC1C(=O)Nc1ccc2c(C)c(CC(N)=O)c(=O)oc2c1 [Ac-(D-Ser)]	3	0	200	> 2000	–	–	–	–
CC(=O)NCC(=O)N1CCC[C@H]1C(=O)CCl [Ac-Gly-Pro-cmk, Acetyl-gly-pro-chloromethyl ketone] (Ac-Gly-Pro-CH2Cl)	–	–	–	–	–	–	–	inhibition of DPP-4 (DPP-4 [5]): not inhibited; time course of DPP-4 activity in the presence of inhibitor (DPP-4 [5]): not time-dependent inhibited; inhibitor concentration-dependent inhibition of FAP (FAP [6]): almost complete; time course of FAP activity in the presence of inhibitor (FAP [6]): time-dependent
Cc1cccc(C)c1C(=O)NCC(=O)N1CCCC1B(O)O (stereo not drawn) [N-(2,6-dimethylbenzoyl)-Gly-boroPro]	–	–	–	–	44	1100	25	–
CC(=O)NC(CO)C(=O)NCC(=O)N1CCCC1B(O)O (stereo not drawn) [N-Ac-Ser-Gly-boroPro]	–	–	–	–	>3	> 40000	16500	–
O=C(CNCc1ccccc1)N1CCCC1B(O)O (stereo not drawn) [N-benzyl-Gly-boroPro]	–	–	–	–	1.2	56	48	–
CC(C)[C@H](N)C(=O)N1CCC[C@H]1B(O)O [PT-100, Val-boro-Pro]	–	–	–	–	–	–	–	direct cytotoxic effect on tumor cells (tumor cells): no direct cytotoxic effect; growth of syngeneic tumors [9]: slowed growth
CC(=O)NC(C(=O)NC(CO)C(=O)NCC(=O)N1CCCC1C(=O)CCl)C(C)O (stereo not drawn) [TSGP-cmk, acetyl-thre-ser-gly-pro-cmk] (Ac-TSGP-CH2Cl; configuration not given here)	–	–	–	–	–	–	–	inhibition of DPP-4 (DPP-4 [5]): not substantially inhibited; time course of DPP-4 activity in the presence of inhibitor (DPP-4 [5]): not time-dependent inhibited; inhibitor concentration-dependent inhibition of FAP (FAP [6]): almost complete; time course of FAP activity in the presence of inhibitor (FAP [6]): time-dependent
NCCC(=O)O [β-Ala]	2	1	340	2000	–	–	–	–
cyclohexylglycine-2-cyano-proline [CHCP]	–	–	–	–	–	–	–	effect of inhibitor concentration on cleavage of AP-AFC by FAP (FAP [10]): not inhibitor concentration dependent cleavage by FAP; effect of inhibitor concentration on cleavage of AP-AFC by DPP-4 (DPP-4 [11]): inhibitor concentration dependent cleavage by DPP-4
